This note sets out measurements from patent US6734161B1, “Peptide nucleic acids having antibacterial activity” (priority 1997, dated 2004).

{LysNH2} = C-terminal lysine amide

Series [1] deals with β-Galactosidase (start codon region). The series is described as follows: in vitro coupled transcription/translation in E. coli S-30 cell extract, β-galactosidase production. It counts as biochemical. On the procedure:
(§1) Strain D10-1 was grown to mid log phase in LB media supplemented with 4 g/L glucose. The preparation of S-30 cell extracts and coupled transcription/translation reactions were carried out as described in Ellman, J., ibid., using plasmid pMAS2, which carries the E. coli gene for β-galactosidase.
PNA oligomers (SEQ ID NOs. 5-8 above) were evaluated in an in vitro assay in which plasmid DNA encoding the genes for β-galactosidase and β-lactamase were added to a template depleted e. coli S-30 cell extract along with the reagents necessary for coupled transcription and translation (Chen, H. Z., Zubay, G., Methods in Enzymol., 1983, 101, 674-690; Ellman, J., et al., Methods in Enzymol., 1991, 202, 301-337). The assay is sensitive to inhibitors that prevent initiation of translation.

A further series concerns β-lactamase. The settings on record: for inhibition of β-lactamase production in strain carrying two base substitutions: AS19 transformed with pLac-2, compared with pBR322; for inhibition of β-lactamase production in strain carrying 6 base substitutions: AS19 transformed with pLac-6.
The subject of series [2] is β-lactamase (start codon region). The format is biochemical, E. coli. The settings on record: for IC50: read-out: PNA concentration required for 50 % inhibition (IC50) of β-lactamase activity, S-30 cell extract, unmodified gene.
Series [3] concerns Ribosomal RNAs. The series is described as follows: transcription vs. translation assay (32P-UTP and 35S-methionine incorporation). Conditions: increasing concentrations of PNA. It counts as biochemical, E. coli. As to the method: Transcription in the cell-free system was assayed using reactions that contained 34 μM of cold UTP and 1 μCi ^32P-UTP. After 30 minutes the reactions were stopped with 10 volumes of 5% TCA and incubated on ice for 30 minutes. Translation in the cell-free system was assayed using reactions that contained 5 mM cold UTP and 1 μCi ^35S-methionine. After 30 minutes the reactions were stopped with an equal volume of 1 M NaOH and placed at 37° C. for 15 minutes. An equal volume of cold 50% TCA containing 2% casein hydrolysate acids was added and after 30 minutes on ice, 1 mL of 5% TCA was added. The TCA precipitable material having radioactivity was collected by vacuum filtration, rinsed five times with 5% TCA and dried. Cerenkov and scintillation counting were used to determine ^32P-UTP and ^35S-methionine incorporation.
The transcription and translation activities yielding β-galactosidase was examined using ^32P-UTP and ^35S-methionine in the assay procedures of Example 5. With increasing concentrations of targeted PNA (SEQ ID NOs. 12 and 13), the level of radioactive methionine incorporation was reduced.

Series [4] has as its system E. coli mutant strain (AS19). The series is described as follows: cell growth assay using E. coli (AS19). The settings on record: 100 μL liquid cultures.
Procedure: Growth assays were initiated using Luria Broth (LB) Media inoculated with 1% (v/v) of an overnight E. coli culture. […] For liquid media cultures, 100 μL of inoculated LB media was aliquoted into microtitre plate wells containing PNA or antibiotic solutions and the plates were incubated overnight at 37° C. The presence or absence of growth was assessed visually as a zone of clearing on solid media or as a lack of turbidity in liquid cultures.
The assay was repeated with the cells in 100 μL liquid cultures. […] The inhibition was determined to be that concentration which visibly limited the growth of the E. coli in a 100 μL culture.
The test system of series [5] is Ribosomal RNAs. The series is described as follows: cell-free translation assay (β-galactosidase production) with PNA targeted to ribosomal RNAs. The settings on record: S-30 cell extract, ONPG. The format is biochemical, E. coli. On the procedure: as §1
Plasmid DNA encoding β-galactosidase was added to a template depleted E. coli S-30 cell extract along with the reagents necessary for coupled transcription/translation (Chen, ibid; Ellman, J., ibid). Production of β-galactosidase was measured […] using the substrate ONPG (Miller, ibid). The assay is sensitive to inhibitors that prevent complete or accurate translation of the enzyme. Several of the targeted PNAs inhibited β-galactosidase production in a dose dependent manner, with IC50s in the nanomolar range. […] The SEQ ID Nos. and the sequences are shown below in Table 2.
PNAs of similar composition, but unrelated sequence, were assayed along with targeted PNAs as controls for non-sequence specific effects. […] No inhibition was detected at a dose of 1 μM for the control PNAs.

The next series has as its system E. coli strain K12. Nature of the series: cell growth assay using E. coli (K12). The settings on record: 2 μL applied onto solid media, overnight 37° C.
Series [6] has as its system E. coli lac repressor gene (start codon region). Nature of the series: PNA-mediated upregulation of beta-galactosidase on X-gal LB/agar plate. The format is cell-based. The settings on record: lawn of E. coli AS19 on LB/agar with X-gal. As to the method:
An antisense PNA (H-[…]-Lys-NH2, SEQ ID No: 27) was prepared targeting the start codon region of the E. coli lac repressor gene. The lacR gene normally limits beta-galactosidase expression in E. coli cells that are grown in nutrient rich conditions, without lactose. The anti-lacR PNA (SEQ ID No: 27) was applied to a lawn of E. coli AS19 cells grown on a LB/agar plate containing a chromogenic beta-galactosidase substrate (X-gal). The petri plate was prepared as described above.

[7] abbreviates: concentrations as high as 400 nM.

Procedure for E. coli strain K12: Growth assays were initiated using Luria Broth (LB) Media inoculated with 1% (v/v) of an overnight E. coli culture. For solid media cultures, 2 mL of molten LB/agar media was inoculated and spread onto pre-warmed (LB)/agar plates. The excess molten media was poured off and the plates were left to solidity for 30 minutes. PNA and antibiotic solutions were pipetted (2 μL) directly onto the solidified overlay and the plates were incubated overnight at 37° C. For liquid media cultures, 100 μL of inoculated LB media was aliquoted into microtitre plate wells containing PNA or antibiotic solutions and the plates were incubated overnight at 37° C. The presence or absence of growth was assessed visually as a zone of clearing on solid media or as a lack of turbidity in liquid cultures.
The inhibition of cell growth was examined using PNA sequences 9-18 in E. coli grown on agar media. Luria broth (LB)/agar plates were prepared with a thin overlay of media containing an inoculum of E. coli strain K12. PNA solutions were applied directly onto the solidified overlay by direct pipetting of 2 μL aliquotes. After overnight incubation at 37° C., a lawn of bacterial cells was established.

With “5 (GGTCATAGCTGTTTC; all peptide nucleic acid (PNA), 3' {LysNH2}; further chemistry not fully specified) [compound 5]”, the IC50 in series [1] (read-out: PNA concentration required for 50 % inhibition (IC50) of β-galactosidase activity, S-30 cell extract, coupled transcription and translation) amounted to 0.01 µM.
Take “6 (TACTCATACTCTTCC; chemistry not given here) [compound 6]”: in the series on β-lactamase, the “inhibition of β-lactamase production in strain carrying two base substitutions” value is “reduced” and the “inhibition of β-lactamase production in strain carrying 6 base substitutions” value is reported as “abolished”. Also, the IC50 in series [2] stood at 0.03 µM.
On the same counts, the results for “7 (GAATACTCATACTCT; chemistry not given here) [compound 7]” are “reduced”, “abolished” and 0.2 µM.
As to “8 (ACGCCACATCTTCGC; chemistry not given here) [compound 8]”, the “inhibition of β-galactosidase production” value in series [1] (setting [7]) was “no inhibition”. Also, the “inhibition of β-lactamase production” value in series [2] (setting [7]) was “no inhibition”.
For “12 (TTNTNNNTTTNTNTCTTTCCGTCTT; listed as DNA, chemistry not given here) [compound 12]”, in the series on Ribosomal RNAs [3], the “level of radioactive UTP (transcription)” value is reported as “remained the same” and the “level of radioactive methionine incorporation (translation)” value is listed as “reduced”. The “concentration which visibly limited growth” value in series [4] stood at 30 µM. The same substance had an IC50 in the series with Ribosomal RNAs [5] of 0.2 µM. The “growth inhibition (zones of clearing)” value in the series on E. coli strain K12 is given as “inhibited cell growth”.
Taken in the same sequence, the figures for “13 (NTNTNNTNTCCTCTC; listed as DNA, chemistry not given here) [compound 13]” were “remained the same”, “reduced”, 10 µM, 0.35 µM and “inhibited cell growth”.
Take “27 (ACATTCACCACCCTG; all peptide nucleic acid (PNA), 3' {LysNH2}; further chemistry not fully specified) [compound 27]”: in series [6], the “beta-galactosidase production (blue zone at sites of application)” value is given as “Increased beta-galactosidase production”.
